Reference: PMC3604073, “Chemerin Is an Antimicrobial Agent in Human Epidermis” (PLoS ONE, 2013)

B1: pro-chem163S: chemerin precursor (holoprotein) with the inhibitory C-terminal peptide (protein, UniProt Q99969 21-163, looked up)
pro-form: ELTEAQRRGLQVALEEFHKHPPVQWAFQETSVESAVDTPFPAGIFVRLEFKLQQTSCRKRDWKKPECKVRPNGRKRKCLACIKLGSEDKVLGRLVHCPIETQVLREAEEHQETQCLRVQRAGEDPHSFYFPGQFAFSKALPRS
modifications: pro-form

Columns and labels:
E. coli ATCC 25922 = test: Radial diffusion assay (RDA); assay type: cell-based; details: peptides at 100 µM, low salt conditions
Description: The indicated bacteria were grown to mid-logarithmic phase in 10 ml of full-strength (3% w/v) TSB as previously described. The microorganisms were then washed once with 10 mM Tris, pH 7.4. 4×10^6 bacterial CFUs were then added to 15 ml of the underlay agarose gel, consisting of 0.03% (w/v) TSB, 1% (w/v) low electroendosmosis type (EEO) agarose (Sigma) and 0.02% (v/v) Tween 20 (Sigma), with or without 0.15 M NaCl. The underlay was poured into a Ø 144 mm Petri dish. After agarose solidification, 4 mm-diameter wells were punched and 6 µl of chemerin-derived peptides or LL37 (Innovagen AB) was added to each well. Plates were incubated at 37°C for 3 hours to allow diffusion of the peptides. The underlay gel was then covered with 15 ml of molten overlay (6% TSB and 1% Low-EEO agarose in dH2O). Antimicrobial activity of a peptide was visualized as a zone of clearing around each well after 18–24 hours of incubation at 37°C.

E. coli = details: evaluated at 2 µM; cited from earlier work

Molecule	inhibition of growth zones in RDA (E. coli ATCC 25922)	E. coli survival (E. coli)
DWKKPECKVRPNGRKRKCLA [p5, synthetic chemerin-derived peptide]	inhibited growth zones	–
RKCLACIKLGSEDKVLGRLV [p6, synthetic chemerin-derived peptide]	inhibited growth zones	–
B1	–	59±13%
